# Measured values from US20240293430A1, “WITHAFERIN A AND IMMUNE CHECKPOINT BLOCKER COMBINATION THERAPIES” (University of South Florida, priority 2023, published 2024).
# Like-named read-outs stand apart in the source and are kept apart here.
# Columns and labels:
# [1] = tested on: WFA-induced PD-L1 upregulation in NSCLC cells; assay: Pharmacologic inhibitors added to WFA, PD-L1 by flow cytometry; format: cell-based, mouse (LLC), human (H1650, A549)
# [2] = tested on: ROS levels in NSCLC cell lines; assay: ROS levels with ROS indicator CM-H2DCFDA; format: cell-based, mouse (LLC), human (H1650; settings: 24 h; WFA 0.6 μM (LLC, H1650), 4 μM (A549); NAC 5 mM
# [3] = tested on: PD-L1 upregulation in MC-38, HCT-116, 4T-1, and MDA-MB-231 cell lines; assay: PD-L1 with WFA and NAC in colorectal and breast cancer cell lines; format: cell-based, mouse (MC-38, 4T1), human (HCT-116; settings: 5 mM NAC; MC-38, HCT-116, 4T-1, MDA-MB-231
# [4] = tested on: WFA-mediated PD-L1 and ecto-CRT increase in NSCLC cell lines; assay: ROS scavenger added to WFA, PD-L1 and ecto-CRT, NSCLC; format: cell-based, mouse (LLC), human (H1650, A549); settings: 24 h; for effect on WFA-mediated PD-L1 increase: WFA + 5 mM scavenger, flow cytometry and qRT-PCR (NAC), flow cytometry (GSH)
# Protocol: NSCLC cell lines were treated with WFA (0.6 μM in LLC, H1650 cells, 4 μM in A549 cells), or a combination of WFA+5 mM NAC for 24 h. (FIGS. 4A, 4D, 4G) The change in ROS levels were measured in LLC (FIG. 4A), H1650 (FIG. 4D), and A549 (FIG. G). (FIGS. 4B, 4E, 4H) by flow cytometry. The change in PD-L1 levels was measured in LLC (FIG. 4B), H1650 (FIG. 4E), and A549 (FIG. 4H) cell lines using flow cytometry and qRT-PCR. (FIG. 4C, 4F, 4I) Ecto-CRT levels were measured in LLC (FIG. 4C), H1650 (FIG. 4F), and A549 (FIG. 41) by flow cytometry. Means of two independent experiments ±SEM are shown, except for the PCR experiments that were repeated twice and for which one representative experiment is shown. Statistical significance was calculated using one-way ANOVA and a Fisher LSD post hoc test where * is p<0.05, ** is p<0.01,*** is p<0.001, and **** is p<0.0001.
# All cells were treated with 0.6 μM WFA except A549, 4t1 and MDA-MB-231 cells which were treated with 4 μM, 1 μM, 2 μM WFA, respectively. […] PCR experiments were repeated twice, and one representative experiment is shown as mean±SEM of 3 technical replicates. Flow cytometry experiments were performed twice and the mean±SEM of two representative experiments is shown. Treatments were compared to the control using one-way ANOVA and Fisher LSD post hoc test. * p<0.05, ** p<0.01, *** p<0.001, **** p<0.0001.
# To test our hypothesis, we treated NSCLC cell lines with WFA, NAC, or a combination of both.
molecule,measurement,setting,value
O=[N+]([O-])c1ccc2c(c1)S(=O)(=O)C=C2 [STATTIC],effect on WFA-induced PD-L1 upregulation,"[1]; WFA + inhibitor, 24 h, STATTIC: LLC, H1650, PX-478: LLC, brusatol: LLC, H1650, A549",neither STATTIC nor PX-478 were able to reverse
"CC(=O)N[C@@H](CS)C(=O)O [NAC, N-acetyl cysteine, reference compound]",ROS levels,[2],reduced
same,effect on WFA-mediated PD-L1 upregulation,[3],completely reversed
same,effect on WFA-induced ecto-CRT expression,[4]; WFA + 5 mM NAC,completely reversed
same,effect on WFA-mediated PD-L1 increase,[4],completely reversed
"N[C@@H](CCC(=O)N[C@@H](CS)C(=O)NCC(=O)O)C(=O)O [Glutathione, L-Glutathione]",effect on WFA-mediated PD-L1 increase,[4],abrogated
Brusatol,effect on WFA-induced PD-L1 upregulation,[1],completely abrogated
